Source: paper PMC6151788, “Biological Evaluation and Molecular Docking of Protocatechuic Acid from Hibiscus sabdariffa L. as a Potent Urease Inhibitor by an ESI-MS Based Method” (Molecules : A Journal of Synthetic Chemistry and Natural …, 2017)

Experiments:
[1] = molecular target: T1, Jack bean urease (JBU) (Canavalia ensiformis, UniProt P07374); experiment: ESI-MS urea depletion assay with purchased jack bean urease; type: biochemical
T1 construct: JBU-type III from Canavalia ensiformis

[2] = molecular target: T1, Jack bean urease (JBU); experiment: ESI-MS urea depletion assay with purchased jack bean urease; standard inhibitor; type: biochemical

T1 sequence (P07374 whole entry, looked up): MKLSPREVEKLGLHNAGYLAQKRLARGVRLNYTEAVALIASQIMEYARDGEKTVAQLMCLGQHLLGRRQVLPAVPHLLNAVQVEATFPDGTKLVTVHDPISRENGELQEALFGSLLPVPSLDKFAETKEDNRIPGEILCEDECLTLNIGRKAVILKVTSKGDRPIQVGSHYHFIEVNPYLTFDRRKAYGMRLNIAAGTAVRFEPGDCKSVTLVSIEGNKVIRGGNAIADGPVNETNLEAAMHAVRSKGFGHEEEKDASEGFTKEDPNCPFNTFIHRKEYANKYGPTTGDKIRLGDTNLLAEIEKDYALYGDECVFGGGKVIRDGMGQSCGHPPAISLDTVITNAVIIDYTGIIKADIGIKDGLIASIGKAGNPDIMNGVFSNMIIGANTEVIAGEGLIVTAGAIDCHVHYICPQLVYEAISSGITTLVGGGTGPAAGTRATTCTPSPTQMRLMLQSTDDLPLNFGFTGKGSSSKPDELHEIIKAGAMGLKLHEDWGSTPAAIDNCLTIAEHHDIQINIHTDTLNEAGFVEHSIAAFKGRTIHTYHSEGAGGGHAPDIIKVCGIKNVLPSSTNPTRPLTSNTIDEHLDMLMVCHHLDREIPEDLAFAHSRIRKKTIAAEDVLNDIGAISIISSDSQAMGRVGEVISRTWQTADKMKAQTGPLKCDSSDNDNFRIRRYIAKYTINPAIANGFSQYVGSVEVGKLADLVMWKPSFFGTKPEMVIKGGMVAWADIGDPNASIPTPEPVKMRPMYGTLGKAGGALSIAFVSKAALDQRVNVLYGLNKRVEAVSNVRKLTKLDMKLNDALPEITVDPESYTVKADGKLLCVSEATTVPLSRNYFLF

Compound | IC50 [1] [µM] | IC50 [2] [µM]
O=C(O)c1ccc(O)c(O)c1 [PCA, 3,4-dihydroxybenzoic acid] | 1.7 | –
CC(=O)NO [AHA, acetohydroxamic acid] | – | 3.2
